The values below come from patent US8946270B2, “Amido-pyridyl ether compounds and compositions and their use against parasites” (Merial Limited, priority 2011, dated 2015).

One may read the mortality as the percentage killed.

One series concerns Haematobia irritans. The experiment in a line: whole plant or invertebrate. As to conditions: 5 μg/cm^2; for mortality at 5 µg/cm2: Haematobia irritans, read-out: Contact SP Horn Fly PCT Mortality (%). As to the method:
A solution of the test compound was used to treat a filter paper contained within a Petri dish and the filter paper was allowed to evaporate to dryness. A small piece of absorbent cotton moistened with 10% sucrose and ten adult flies (Haematobia irritans or Stomoxys calcitrans) were added to each dish. Dishes were capped and held at room temperature. Assessments were performed at 4 and 24 hours after infestation in comparison with untreated controls.

Series [1] has as its system Rhipicephalus sanguineus (Brown Dog Tick). Description: whole plant or invertebrate. The note with it: for Contact SP Rhicicep PCT Mortality (%): 200 ppm; for mortality at 200 ppm: Rhipicephalus sanguineus, read-out: Contact SP Rhicicep PCT Mortality (%). An excerpt:
A solution of the test compound was used to coat the inner wall of glass vials and to treat two filter papers. Once dried, one filter paper was placed in the cap of the vial and the other in the bottom of the vial. Each treated vial was infested with 10 adult Rhipicephalus sanguineus (Brown Dog Tick). […]

Where two headings read alike, the source gives them in different places.

For `CC(C)CNC(=O)c1ccc(C(C)COc2cccc(OC(F)(F)F)c2)cn1` (racemic) [Compound 251], the “Contact SP Horn Fly PCT Mortality (%)” value in the series with Haematobia irritans (timepoint 4 hrs) turned out to be 80%; with Haematobia irritans (timepoint 24 hrs), 100%.
Taken in the same sequence, the figures for `COCCCNC(=O)c1ccc(COc2ccc(OC(F)(F)F)cc2)cn1` [Compound 18] were 0% and 40%.
As to `CCNC(=O)c1ccc(COc2ccc(OC(F)(F)F)cc2)cn1` [Compound 23], the “Contact SP Rhicicep PCT Mortality (%)” value in series [1] (timepoint 4 hrs) is 80%; in series [1] (timepoint 24 hrs), 90%.
With `CCCNC(=O)c1ccc(COc2ccc(OC(F)(F)F)cc2)cn1` [Compound 34], the entries for the “Contact SP Horn Fly PCT Mortality (%)” value with Haematobia irritans (timepoint 4 hrs) and in the series on Haematobia irritans (timepoint 24 hrs) were 60% and 80%, respectively.
Taken in the same sequence, the figures for `C=C(C)CNC(=O)c1ccc(COc2ccc(OC(F)(F)F)cc2)cn1` [Compound 38] were 50% and 80%.
On the same counts, the results for `CCCCNC(=O)c1ccc(COc2ccc(OC(F)(F)F)cc2)cn1` [Compound 40] are 0% and 40%.
With `CCC(C)CNC(=O)c1ccc(COc2ccc(OC(F)(F)F)cc2)cn1` (stereo not shown) [Compound 41], the mortality at 5 µg/cm2 in the series with Haematobia irritans (timepoint 4 hrs) and with Haematobia irritans (timepoint 24 hrs) was 60% throughout.
Consider `CSCCNC(=O)c1ccc(COc2cccc(OC(F)(F)F)c2)cn1` [Compound 49], for which the mortality at 5 µg/cm2 in the series with Haematobia irritans (timepoint 4 hrs) is 60%; in the series on Haematobia irritans (timepoint 24 hrs), 0%.
As to `CC(C)NC(=O)c1ccc(COc2cccc(OC(F)(F)F)c2)cn1` [Compound 50], the “Contact SP Horn Fly PCT Mortality (%)” value in the series on Haematobia irritans (timepoint 4 hrs) was found to be 70%; in the series with Haematobia irritans (timepoint 24 hrs), 80%.
Regarding `C=C(C)CNC(=O)c1ccc(COc2cccc(OC(F)(F)F)c2)cn1` [Compound 53], the “Contact SP Horn Fly PCT Mortality (%)” value in the series on Haematobia irritans (timepoint 4 hrs) and with Haematobia irritans (timepoint 24 hrs) was 20% in each case.
Consider `CCC(C)CNC(=O)c1ccc(COc2cccc(OC(F)(F)F)c2)cn1` (stereo not shown) [Compound 57], for which the results for the “Contact SP Horn Fly PCT Mortality (%)” value with Haematobia irritans (timepoint 4 hrs) and in the series with Haematobia irritans (timepoint 24 hrs) were 70% and 80%, respectively.
Taken in the same sequence, the figures for `Cc1cccc(OCc2ccc(C(=O)NCC3CC3)nc2)c1` [Compound 61] were 90% and 90%.
Consider `CCc1cccc(OCc2ccc(C(=O)NCC3CCOCC3)nc2)c1` [Compound 68], for which the mortality at 200 ppm in series [1] (timepoint 4 hrs) came to 50%; in series [1] (timepoint 24 hrs), 90%.
Consider `CCc1cccc(OCc2ccc(C(=O)NCCSC)nc2)c1` [Compound 70], for which the “Contact SP Rhicicep PCT Mortality (%)” value in series [1] (timepoint 4 hrs) amounted to 80%; in series [1] (timepoint 24 hrs) it was 100%.
Consider `CCc1cccc(OCc2ccc(C(=O)NCC3CC3)nc2)c1` [Compound 73], for which the “Contact SP Horn Fly PCT Mortality (%)” value in the series on Haematobia irritans (timepoint 4 hrs) and with Haematobia irritans (timepoint 24 hrs) was 100% throughout.
`O=C(NCC1CC1)c1ccc(COc2ccc(C(F)(F)F)cc2)cn1` [Compound 95]: the “Contact SP Horn Fly PCT Mortality (%)” value is 50% with Haematobia irritans (timepoint 4 hrs) and 70% in the series on Haematobia irritans (timepoint 24 hrs).
For `O=C(NCc1ccncc1)c1ccc(COc2cc(F)cc(Br)c2)cn1` [Compound 114], the results for the “Contact SP Rhicicep PCT Mortality (%)” value in series [1] (timepoint 4 hrs) and in series [1] (timepoint 24 hrs) were 40% and 60%, respectively.
On the same counts, the results for `CCCNC(=O)c1ccc(COc2cc(F)cc(Br)c2)cn1` [Compound 120] are 60% and 70%.
On the same counts, the results for `C=C(C)CNC(=O)c1ccc(COc2cccc(OC)c2)cn1` [Compound 150] are 70% and 70%.
As for `COc1cccc(OCc2ccc(C(=O)NCC(C)C)nc2)c1` [Compound 151], the figures for the “Contact SP Rhicicep PCT Mortality (%)” value in series [1] (timepoint 4 hrs) and in series [1] (timepoint 24 hrs) were 0% and 80%, respectively.
On the same counts, the results for `CC(C)CNC(=O)c1ccc(COc2ccc(F)c(F)c2)cn1` [Compound 155] are 60% and 100%.
Taken in the same sequence, the figures for `COCCCNC(=O)c1ccc(COc2cccc(-c3cccc(F)c3)c2)cn1` [Compound 166] were 40% and 80%.
On the same counts, the results for `COC(CNC(=O)c1ccc(COc2cccc(-c3cccc(F)c3)c2)cn1)OC` [Compound 167] are 100% and 100%.
With `CSCCNC(=O)c1ccc(COc2cccc(-c3cccc(F)c3)c2)cn1` [Compound 174], the “Contact SP Rhicicep PCT Mortality (%)” value stood at 90% in series [1] (timepoint 4 hrs) and 100% in series [1] (timepoint 24 hrs).
On to `CCC(C)CNC(=O)c1ccc(COc2cccc(-c3cccc(F)c3)c2)cn1` (stereo not shown) [Compound 181], for which the entries for the “Contact SP Rhicicep PCT Mortality (%)” value in series [1] (timepoint 4 hrs) and in series [1] (timepoint 24 hrs) were 70% and 90%, respectively.
On the same counts, the results for `CCOc1cccc(OCc2ccc(C(=O)NCC(C)C)nc2)c1` [Compound 199] are 100% and 100%.
For `CC(C)CNC(=O)c1ccc(CCOc2cccc(C(F)(F)F)c2)cn1` [Compound 209], the mortality at 200 ppm in series [1] (timepoint 4 hrs) was 90%; in series [1] (timepoint 24 hrs), 100%.
Take `CC(C)(C)CNC(=O)c1ccc(COCc2ccc(Cl)cc2)cn1` [Compound 216]: the “Contact SP Rhicicep PCT Mortality (%)” value in series [1] (timepoint 4 hrs) worked out at 0%; in series [1] (timepoint 24 hrs) it was 60%.
On to `O=C(NCC1CCOCC1)c1ccc(CCOc2cccc(C(F)(F)F)c2)cn1` [Compound 220], for which the mortality at 200 ppm in series [1] (timepoint 4 hrs) and in series [1] (timepoint 24 hrs) was 100% each time.
With `CCC(C)CNC(=O)c1ccc(CCOc2cccc(C(F)(F)F)c2)cn1` (stereo not shown) [Compound 221], the values for the mortality at 200 ppm in series [1] (timepoint 4 hrs) and in series [1] (timepoint 24 hrs) were 90% and 100%, respectively.
As to `CC(C)CNC(=O)c1ccc(CCOc2ccc(F)c(OC(F)(F)F)c2)cn1` [Compound 222], the “Contact SP Rhicicep PCT Mortality (%)” value in series [1] (timepoint 4 hrs) is on record as 90%; in series [1] (timepoint 24 hrs) it was 100%.
`CC(C)CNC(=O)c1ccc(CCOc2cc(Cl)cc(Cl)c2)cn1` [Compound 225]: the mortality at 200 ppm in series [1] (timepoint 4 hrs) turned out to be 90%; in series [1] (timepoint 24 hrs), 100%.
Consider `CC(C)CNC(=O)c1ccc(COCc2ccc(Cl)c(OC(F)(F)F)c2)cn1` [Compound 227], for which the “Contact SP Rhicicep PCT Mortality (%)” value in series [1] (timepoint 4 hrs) and in series [1] (timepoint 24 hrs) was 100% in each case.
Turning to `CC(C)CNC(=O)c1ccc(COCc2ccc(F)c(OC(F)(F)F)c2)cn1` [Compound 228], the mortality at 200 ppm in series [1] (timepoint 4 hrs) and in series [1] (timepoint 24 hrs) was 90% throughout.
In the case of `CC(C)CNC(=O)c1ccc(COCc2cc(F)cc(C(F)(F)F)c2)cn1` [Compound 229], the mortality at 200 ppm in series [1] (timepoint 4 hrs) and in series [1] (timepoint 24 hrs) was 80% each time.
As to `CC(C)CNC(=O)c1ccc(COCc2ccc(C(F)(F)F)cc2F)cn1` [Compound 232], the mortality at 200 ppm in series [1] (timepoint 4 hrs) and in series [1] (timepoint 24 hrs) was 100% throughout.
With `CC(C)CNC(=O)c1ccc(COCc2ccc(Cl)cc2)cn1` [Compound 234], the mortality at 200 ppm in series [1] (timepoint 4 hrs) and in series [1] (timepoint 24 hrs) was 90% in each case.
On to `CC(C)CNC(=O)c1ccc(CCOc2ccc(Br)c(OC(F)(F)F)c2)cn1` [Compound 237], for which the mortality at 200 ppm in series [1] (timepoint 4 hrs) worked out at 90%; in series [1] (timepoint 24 hrs), 100%.
On the same counts, the results for `CC(C)CCNC(=O)c1ccc(CCOc2cccc(OC(F)(F)F)c2)cn1` [Compound 240] are 90% and 90%.
On the same counts, the results for `CCC(C)NC(=O)c1ccc(CCOc2cccc(OC(F)(F)F)c2)cn1` (stereo not shown) [Compound 241] are 50% and 90%.
Taken in the same sequence, the figures for `CCC(C)CNC(=O)c1ccc(CCOc2cccc(OC(F)(F)F)c2)cn1` (stereo not shown) [Compound 242] were 70% and 90%.
Consider `O=C(NCC1CCOCC1)c1ccc(COc2ccc(C(F)(F)F)cc2Br)cn1` [Compound 256], for which the “Contact SP Rhicicep PCT Mortality (%)” value was 90% in series [1] (timepoint 4 hrs) and 100% in series [1] (timepoint 24 hrs).
On the same counts, the results for `O=C(NCC1CCOCC1)c1ccc(COc2ccc(C(F)(F)F)cc2F)cn1` [Compound 257] are 80% and 90%.
For `O=C(NCC1CCOCC1)c1ccc(COCc2ccc(Cl)cc2)cn1` [Compound 259], the values for the mortality at 200 ppm in series [1] (timepoint 4 hrs) and in series [1] (timepoint 24 hrs) were 80% and 90%, respectively.
On to `O=C(NCC1CCOCC1)c1ccc(COCc2ccccc2Cl)cn1` [Compound 260], for which the “Contact SP Rhicicep PCT Mortality (%)” value in series [1] (timepoint 4 hrs) turned out to be 90%; in series [1] (timepoint 24 hrs) it was 100%.
As for `O=C(NCC1CCOCC1)c1ccc(COCc2ccccc2C(F)(F)F)cn1` [Compound 266], the mortality at 200 ppm is 70% in series [1] (timepoint 4 hrs) and 90% in series [1] (timepoint 24 hrs).
With `CC(C)CNC(=O)c1ccc(CCOc2cc(F)cc(C(F)(F)F)c2)cn1` [Compound 278], the “Contact SP Rhicicep PCT Mortality (%)” value in series [1] (timepoint 4 hrs) was determined as 70%; in series [1] (timepoint 24 hrs) it was 100%.
On to `CC(C)CNC(=O)c1ccc(COCc2ccc(C(F)(F)F)c(F)c2)cn1` [Compound 283], for which the “Contact SP Rhicicep PCT Mortality (%)” value in series [1] (timepoint 4 hrs) and in series [1] (timepoint 24 hrs) was 100% in each case.
As to `CC(C)CNC(=O)c1ccc(COCc2ccc(C(F)(F)F)c(Cl)c2)cn1` [Compound 284], the entries for the “Contact SP Rhicicep PCT Mortality (%)” value in series [1] (timepoint 4 hrs) and in series [1] (timepoint 24 hrs) were 90% and 100%, respectively.
On the same counts, the results for `CC(C)CNC(=O)c1ccc(COCc2cccc(F)c2F)cn1` [Compound 290] are 80% and 80%.
